Where a name gives a salt, the structure may show the parent alone.
Test: Dissolution kinetics in simulated lung fluid (SLF), USP 2 dissolution apparatus
Format: physicochemical
Settings: SLF pH 7.4, 37° C.
Procedure: The dissolution kinetics of the C21-loaded silica described in Example 5 were characterized in SLF (pH 7.4; Gamble's solution: made up with the salts NaCl, NaHCO3, KCl, MgCl2, CaCl2, Na2SO4, sodium citrate dihydrate, sodium acetate, NaH2PO4 (all from Sigma-Aldrich)) at 37° C. (Reference: Simulated Biological Fluids with Possible Application in Dissolution Testing, Marques et al,. Dissolution technologies August 2011, p15-28) using a USP 2 dissolution apparatus with stirring speed 75 rpm. Free, unloaded C21-sodium salt was used as control. Concentration of drug at set times after release was measured by a UV/vis spectrometer (Cecil 3021) at 267 nm.
The dose of C21 was calculated as 25 mg of C21 in 500 mL of SLF. […] The loaded C21 is fully released and dissolved from the silica particles in around 10 minutes.

Structure (SMILES): CCCCOC(=O)NS(=O)(=O)c1sc(CC(C)C)cc1-c1ccc(Cn2ccnc2)cc1 [C21 sodium salt, N-butyloxycarbonyl-3-(4-imidazol-1-ylmethylphenyl)-5-iso-butylthio-phene-2-sulfonamide]
- solubility in SLF conditions: readily soluble
- released in the first 2 minutes (75 rpm, 25 mg of C21 in 500 mL): 96%
